This note sets out measurements from patent publication US8530652B2, “Pyrrolopyrazoles, potent kinase inhibitors” (Agouron Pharmaceuticals, Inc., priority 2005, dated 2013).

Experiment [1] addresses PAK4 kinase domain (PAK4 KD) (Homo sapiens (Human), UniProt O96013). Nature of the experiment: PAK4 kinase domain enzymatic assay (coupled PK/LDH, NADH absorbance at 340 nm). The experiment is classed as biochemical. Conditions: PAK4 kinase domain, 25 nM PAK4 KD, 0.04 mM ATP, pH 7.5. An excerpt:
Cloning, expression, and purification of recombinant PAK4 Kinase domain (PAK4 KD): The cDNA coding for PAK4 was amplified from the EST clone (#12) (purchased from Research Genetics) by using PCR. […] The PCR amplified product was cloned into Topo vector (Invitrogen Inc.), and verified by DNA sequencing. PAK4 KD was then subcloned into expression plasmid pET28a(+), pET24a(+), or pGST4.5. The recombinant plasmids containing PAK4 KD was transformed into BL21(DE3) cells for recombinant protein expression. […] The cells were then harvested and lyzed for protein purification. Ni-NTA column (pET28a(+), pET24a(+)) and glutathione column (pGST4.5) were used for the purification.
PAK4 kinase domain enzymatic assay conditions: the enzymatic activity of PAK4 KD was measured by its ability to catalyze the transfer of a phosphate residue from a nucleoside triphosphate to an amino acid side chain of a commercially available peptide (amino acid sequence […]). The conversion of ATP to ADP accompanies the catalytic reaction. The PAK4 KD catalyzed production of ADP from ATP was coupled to the oxidation of NADH through the activities of pyruvate kinase (PK) and lactate dehydrogenase (LDH). The conversion of NADH to NAD^+ is monitored by the decrease in absorbance at 340 nm (e340=6.22 cm^−1mM^−1) using a Molecular Devices SPECTRAMAX 190 in conjunction with the Biomec FX. Typical reaction solutions contain 2 mM phosphoenolpyruvate, 0.35 mM NADH, 10 mM MgCl2, 1 mM DTT, 0.4 mM peptide ([…]) 0.04 mM ATP, 1 units/mL PK, 1 units/mL LDH, 0.01% Tween 20 in 50 mM HEPES, pH 7.5. […] The PAK KD Ki of each compound of the invention (the inhibitor) was calculated based on multiple of Percent Inhibition numbers of the inhibitor at different inhibitor concentrations. The peptide (amino sequence […]) was purchased from American Peptide Company. NADH, MgCl2, HEPES, DTT, ATP and PK/LDH were purchased from Sigma. Tween 20 was purchased from Calbiochem.

The target of experiment [2] is PAK4 kinase activity in whole cells (TR-293-KDG, modified HEK 293 overexpressing GEF-H1b and PAK4 KD) (Homo sapiens (Human), UniProt O96013). Nature of the experiment: PAK4 cellular assay: sandwich ELISA of PAK4-dependent phosphorylation of GEF-H1b in TR-293-KDG cells. Conditions: doxycycline-induced, 3-hour exposure, phospho-GEF-H1b ELISA. The experiment is classed as cell-based. From the text:
A sandwich ELISA method was used to measure the PAK4 kinase activity in whole cells. The level of PAK4-dependent phosphorylation of GEF-H1b can be determined by monitoring the binding of a phosphospecific antibody to GEF-H1b. A modified HEK 293 cell line is used in the bioassay and it has been engineered to overexpress both GEF-H1b and the kinase domain (KD) of PAK4. The KD of PAK4 is inducible in this cell line by tetracycline (Trex system, Invitrogen). The name of this cell line has been designated TR-293-KDG. To establish a phosphorylation event on GEF-H1, cells are induced with doxycycline to express the PAK4 KD. […] Candidate substance effect is measured as the ability to block this phosphorylation event.
ELISA plate was prepared by pre-coating the plates with a capture antibody (α-HA-tag mouse monoclonal antibody), blocked with BSA, and washed in 0.1% tween 20 in tris-buffered saline (TBST). Tissue culture plates (precoated with poly-D-lysine) were seeded with TR-293-KDG cells. The TR-293-KDG Cells were induced to express the PAK4 KD with doxycycline overnight and subsequently & concomitantly treated with candidate substances or diluent for an additional 3-hour, continuous exposure. Cells were then lysed with a modified RIPA buffer supplemented with protease inhibitors. The fresh whole cell lysates were then added to the ELISA plate for 2-hours. Between all subsequent steps plates were washed 4 times with TBST. Detection antibody (recognizing the phospho-specific eptitope on GEF-H1b) was added for 1 hour, followed by addition of an enzyme linked goat α-rabbit secondary antibody for 45 minutes. […] EC50 values were calculated by sigmoid curve fitting using a four-parameter analysis.

Chain of PAK4 kinase activity in whole cells (TR-293-KDG, modified HEK 293 overexpressing GEF-H1b and PAK4 KD) (O96013 321-572): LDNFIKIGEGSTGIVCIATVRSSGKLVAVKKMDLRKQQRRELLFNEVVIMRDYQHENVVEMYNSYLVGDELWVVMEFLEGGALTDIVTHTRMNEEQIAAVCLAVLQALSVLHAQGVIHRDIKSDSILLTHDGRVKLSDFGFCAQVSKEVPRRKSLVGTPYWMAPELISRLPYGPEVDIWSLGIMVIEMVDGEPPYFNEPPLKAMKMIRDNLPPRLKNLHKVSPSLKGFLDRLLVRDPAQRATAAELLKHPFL
Chain of PAK4 kinase domain (PAK4 KD) (O96013 321-572): as above

As for `CC1(C)c2[nH]nc(Nc3ncnc4ccsc34)c2CN1C(=O)N[C@H]1C[C@@H]1c1ccccc1` (relative stereo) [Example 1, 6,6-dimethyl-N-[trans-2-phenylcyclopropyl]-3-(thieno[3,2-d]pyrimidin-4-ylamino)-4,6-dihydropyrrolo[3,4-c]pyrazole-5(1H)-carboxamide], the Ki in experiment [1] worked out at 41 nM. The EC50 in experiment [2] is greater than 2000 nM.

The molecule `CC1(C)c2[nH]nc(Nc3nc(Cl)nc4ccsc34)c2CN1C(=O)N[C@@H]1C[C@H]1c1ccccc1` (relative stereo) [Example 2, 3-[(2-chlorothieno[3,2-d]pyrimidin-4-yl)amino]-6,6-dimethyl-N-[trans-2-phenylcyclopropyl]-4,6-dihydropyrrolo[3,4-c]pyrazole-5(1H)-carboxamide] showed an inhibition constant (Ki) in experiment [1] of 14 nM. Further, in experiment [2], the midpoint of the response, the EC50, lay at 36 nM.

In the case of `CCCOc1nc(Cl)nc(Nc2n[nH]c3c2CN(C(=O)N[C@@H]2C[C@H]2c2ccccc2)C3(C)C)n1` (relative stereo) [Example 7, 3-[(4-chloro-6-propoxy-1,3,5-triazin-2-yl)amino]-6,6-dimethyl-N-[trans-2-phenylcyclopropyl]-4,6-dihydropyrrolo[3,4-c]pyrazole-5(1H)-carboxamide], in experiment [1], the inhibition constant Ki came to 87 nM. Moreover, the EC50 in experiment [2] was greater than 4000 nM.

In experiment [1], `CC1(C)c2[nH]nc(Nc3nc(Cl)nc(Cl)n3)c2CN1C(=O)N[C@@H]1C[C@H]1c1ccccc1` (relative stereo) [Example 9, 3-[(4,6-dichloro-1,3,5-triazin-2-yl)amino]-6,6-dimethyl-N-[trans-2-phenylcyclopropyl]-4,6-dihydropyrrolo[3,4-c] pyrazole-5(1H)-carboxamide] showed an inhibitory constant (Ki) of 270 nM. The half-maximal effective concentration (EC50) in experiment [2] is greater than 4000 nM.

In experiment [1], `COc1nc(Cl)nc(Nc2n[nH]c3c2CN(C(=O)N[C@@H]2C[C@H]2c2ccccc2)C3(C)C)n1` (relative stereo) [Example 10, 3-[(4-chloro-6-methoxy-1,3,5-triazin-2-yl)amino]-6,6-dimethyl-N-[trans-2-phenylcyclopropyl]-4,6-dihydropyrrolo[3,4-c]pyrazole-5(1H)-carboxamide] came in with a Ki of 120 nM. In experiment [2], the EC50 is greater than 4000 nM.

Turning to `CN(C)c1nc(Cl)nc(Nc2n[nH]c3c2CN(C(=O)N[C@@H]2C[C@H]2c2ccccc2)C3(C)C)n1` (relative stereo) [Example 15, 3-{[4-chloro-6-(dimethylamino)-1,3,5-triazin-2-yl]amino}-6,6-dimethyl-N-[trans-2-phenylcyclopropyl]-4,6-dihydropyrrolo [3,4-c]pyrazole-5(1H)-carboxamide], the inhibition constant Ki in experiment [1] turned out to be 90 nM. Further, the EC50 in experiment [2] came out at 500 nM.

Molecule `CC1(C)c2[nH]nc(Nc3ccnc(C(F)(F)F)n3)c2CN1C(=O)N[C@H]1C[C@@H]1c1ccccc1` (relative stereo) [Example 30, 6,6-dimethyl-N-[trans-2-phenylcyclopropyl]-3-{[2-(trifluoromethyl)pyrimidin-4-yl]amino}-4,6-dihydropyrrolo[3,4-c]pyrazole-5(1H)-carboxamide] yielded a Ki in experiment [1] of 80 nM. Also, the response in experiment [2] was half-maximal at 968 nM (EC50).

For `CC1(C)c2[nH]nc(Nc3ccnc(C#N)n3)c2CN1C(=O)N[C@@H]1C[C@H]1c1ccccc1` (relative stereo) [Example 33, 3-[(2-cyanopyrimidin-4-yl)amino]-6,6-dimethyl-N-[trans-2-phenylcyclopropyl]-4,6-dihydropyrrolo[3,4-c]pyrazole-5(1H)-carboxamide], the Ki in experiment [1] is 47 nM. This molecule also yielded an EC50 in experiment [2] of 618 nM.

In experiment [1], `Cc1nc(Nc2n[nH]c3c2CN(C(=O)N[C@@H]2C[C@H]2c2ccccc2)C3(C)C)cc(N2CCOCC2)n1` (relative stereo) [Example 34, 6,6-dimethyl-3-[(2-methyl-6-morpholin-4-ylpyrimidin-4-yl)amino]-N-[trans-2-phenylcyclopropyl]-4,6-dihydropyrrolo[3,4-c]pyrazole-5(1H)-carboxamide] yielded an inhibitory constant (Ki) of 21 nM. The molecule further returned an EC50 in experiment [2] of 778 nM.

Molecule `Cc1cc2c(Nc3n[nH]c4c3CN(C(=O)N[C@@H]3C[C@H]3c3ccccc3)C4(C)C)ncnc2s1` (relative stereo) [Example 35, 6,6-dimethyl-3-[(6-methylthieno[2,3-d]pyrimidin-4-yl)amino]-N-[trans-2-phenylcyclopropyl]-4,6-dihydropyrrolo[3,4-c]pyrazole-5(1H)-carboxamide] displayed a Ki in experiment [1] of 260 nM. For the same molecule, in experiment [2], a half-maximal response (EC50) required 262 nM.

`Cn1cnc2c(Nc3n[nH]c4c3CN(C(=O)N[C@@H]3C[C@H]3c3ccccc3)C4(C)C)ncnc21` (relative stereo) [Example 36, 6,6-dimethyl-3-[(9-methyl-9H-purin-6-yl)amino]-N-[trans-2-phenylcyclopropyl]-4,6-dihydropyrrolo[3,4-c]pyrazole-5(1H)-carboxamide] registered a 50% effective concentration (EC50) in experiment [2] greater than 4000 nM.

For the molecule `CCOc1ncc(F)c(Nc2n[nH]c3c2CN(C(=O)N[C@@H]2C[C@H]2c2ccccc2)C3(C)C)n1` (relative stereo) [Example 37, 3-[(2-ethoxy-5-fluoropyrimidin-4-yl)amino]-6,6-dimethyl-N-[trans-2-phenylcyclopropyl]-4,6-dihydropyrrolo[3,4-c]pyrazole-5(1H)-carboxamide], in experiment [1], the inhibition constant Ki is 270 nM. The same molecule registered an EC50 in experiment [2] of 805 nM.

In turn, `Cc1nccc(Nc2n[nH]c3c2CN(C(=O)N[C@@H]2C[C@H]2c2ccccc2)C3(C)C)n1` (relative stereo) [Example 39, 6,6-dimethyl-3-[(2-methylpyrimidin-4-yl)amino]-N-[trans-2-phenylcyclopropyl]-4,6-dihydropyrrolo[3,4-c]pyrazole-5(1H)-carboxamide] returned an EC50 in experiment [2] greater than 4000 nM.

`CN(C)C[C@@H](NC(=O)N1Cc2c(Nc3ccnc(C(F)(F)F)n3)n[nH]c2C1(C)C)c1ccccc1` [Example 55, N-[(1S)-2-(dimethylamino)-1-phenylethyl]-6,6-dimethyl-3-{[2-(trifluoromethyl)pyrimidin-4-yl]amino}-4,6-dihydropyrrolo[3,4-c]pyrazole-5(1H)-carboxamide] gave an EC50 in experiment [2] greater than 4000 nM.

`Cc1cc2c(Nc3n[nH]c4c3CN(C(=O)O[C@H](CN(C)C)c3ccccc3)C4(C)C)ncnc2s1` [Example 71, (1S)-2-(dimethylamino)-1-phenylethyl 6,6-dimethyl-3-[(6-methylthieno[2,3-d]pyrimidin-4-yl)amino]-4,6-dihydropyrrolo[3,4-c]pyrazole-5(1H)-carboxylate] gave a Ki in experiment [1] of 5.2 nM.

In the case of `Cc1csc2c(Nc3n[nH]c4c3CN(C(=O)N3C[C@@H]5CCCN5C[C@@H]3C)C4(C)C)ncnc12` [Example 81, N-(6,6-dimethyl-5-{[(3S,8aS)-3-methylhexahydropyrrolo[1,2-a]pyrazin-2(1H)-yl]carbonyl}-1,4,5,6-tetrahydropyrrolo[3,4-c]pyrazol-3-yl)-7-methylthieno[3,2-d]pyrimidin-4-amine], in experiment [1], the affinity corresponds to a Ki of 84 nM.

In experiment [1], `Cc1ncnc(Nc2n[nH]c3c2CN(C(=O)N2C[C@@H]4CCCN4C[C@@H]2C)C3(C)C)c1F` [Example 82, N-(5-fluoro-6-methylpyrimidin-4-yl)-6,6-dimethyl-5-{[(3S,8aS)-3-methylhexahydropyrrolo[1,2-a]pyrazin-2(1H)-yl]carbonyl}-1,4,5,6-tetrahydropyrrolo[3,4-c]pyrazol-3-amine] registered a Ki of 2500 nM.
